From patent US20230250066A1, “HERBICIDAL CINNOLINE DERIVATIVES” (SYNGENTA CROP PROTECTION AG, priority 2020, published 2023) come the findings set out here.

Assay type in all cases: in vivo
Assay [1] relates to Amaranthus retoflexus (AMARE). Put plainly: Pre-emergence herbicidal test. The conditions noted are these: 1000 g/ha, evaluated after 13 days.
For assay [2], the system named is Setaria faberi (SETFA). Put plainly: Pre-emergence herbicidal test. The conditions noted are these: 1000 g/ha, evaluated after 13 days.
In assay [3] the test system is Echinochloa crus-galli (ECHCG). Put plainly: Pre-emergence herbicidal test. The conditions noted are these: 1000 g/ha, evaluated after 13 days.
Assay [4] concerns Ipomoea hederacea (IPOHE). Put plainly: Pre-emergence herbicidal test. Conditions: 1000 g/ha, evaluated after 13 days.
Assay [5] deals with Abutilon theophrasti (ABUTH). In words: Pre-emergence herbicidal test. The conditions noted are these: 1000 g/ha, evaluated after 13 days.
Assay [6] concerns Zea mays (ZEAMX). Put plainly: Pre-emergence herbicidal test. The conditions noted are these: 1000 g/ha, evaluated after 13 days.
Assay [7] concerns Abutilon theophrasti (ABUTH). Put plainly: Post-emergence herbicidal test. Conditions: 1000 g/ha unless otherwise stated, evaluated after 13 days. The protocol:
(§1) Seeds of a variety of test species are sown in standard soil in pots (Amaranthus retoflexus (AMARE), Solanum nigrum (SOLNI), Setaria faberi (SETFA), Lolium perenne (LOLPE), Echinochloa crus-galli (ECHCG), Ipomoea hederacea (IPOHE), Abutilon theophrasti (ABUTH), Zea mays (ZEAMX)). After 8 days cultivation under controlled conditions in a glasshouse (at 24° C./16° C., day/night; 14 hours light; 65% humidity), the plants are sprayed with an aqueous spray solution derived from the formulation of the technical active ingredient in acetone/water (50:50) solution containing 0.5% Tween 20 (polyoxyethelyene sorbitan monolaurate, CAS RN 9005-64-5). Compounds are applied at 1000 g/ha unless otherwise stated. The test plants are then grown in a glasshouse under controlled conditions in a glasshouse (at 24° C./16° C., day/night; 14 hours light; 65% humidity) and watered twice daily. After 13 days the test is evaluated for the percentage damage caused to the plant. The biological activities are shown in the following table on a five-point scale (5=81-100%; 4=61-80%; 3=41-60%; 2=21-40%; 1=10-20%; 0=0%;−=not tested).

Assay [8] concerns Amaranthus retoflexus (AMARE). Put plainly: Post-emergence herbicidal test. The conditions noted are these: 1000 g/ha unless otherwise stated, evaluated after 13 days. As to the method: as §1
Assay [9] relates to Echinochloa crus-galli (ECHCG). Put plainly: Post-emergence herbicidal test. Conditions: 1000 g/ha unless otherwise stated, evaluated after 13 days. As to the method:
as §1

Assay [10] has as its system Ipomoea hederacea (IPOHE). In words: Post-emergence herbicidal test. The conditions noted are these: 1000 g/ha unless otherwise stated, evaluated after 13 days. The protocol:
as §1

Assay [11] relates to Setaria faberi (SETFA). In words: Post-emergence herbicidal test. Conditions: 1000 g/ha unless otherwise stated, evaluated after 13 days. The protocol: as §1
Assay [12] deals with Zea mays (ZEAMX). Put plainly: Post-emergence herbicidal test. Conditions: 1000 g/ha unless otherwise stated, evaluated after 13 days. As to the method: as §1

On to `CCOC(=O)c1nn(-c2ccc(OC(F)(F)F)cc2)c2cccc(SCC(F)(F)F)c2c1=O` [Compound P39, ethyl 4-oxo-5-(2,2,2-trifluoroethylsulfanyl)-1-[4-(trifluoromethoxy)phenyl]cinnoline-3-carboxylate], for which, in [1], the “percentage damage caused to the plant, five-point scale, AMARE” value is on record as 1 (1=10-20%). Also, in assay [2], the “percentage damage caused to the plant, five-point scale, SETFA” value is 0 (0=0%). Moreover, in [3], the “percentage damage caused to the plant, five-point scale, ECHCG” value was 0 (0=0%). Moreover, the “percentage damage caused to the plant, five-point scale, IPOHE” value in assay [4] is listed as 0 (0=0%). Also, in assay [5], the “percentage damage caused to the plant, five-point scale, ABUTH” value is listed as 0 (0=0%). Besides, in assay [6], the “percentage damage caused to the plant, five-point scale, ZEAMX” value was 0 (0=0%). Further, in assay [7], the “percentage damage caused to the plant, ABUTH (five-point scale)” value is 1 (1=10-20%). Further, in assay [8], the “percentage damage caused to the plant, AMARE (five-point scale)” value is reported as 0 (0=0%). Moreover, the “percentage damage caused to the plant, ECHCG (five-point scale)” value in [9] is 0 (0=0%). Besides, the “percentage damage caused to the plant, IPOHE (five-point scale)” value in assay [10] is reported as 1 (1=10-20%). Besides, the “percentage damage caused to the plant, SETFA (five-point scale)” value in assay [11] is recorded as 0 (0=0%). The “percentage damage caused to the plant, ZEAMX (five-point scale)” value in assay [12] is recorded as 1 (1=10-20%).

In the case of `CCOC(=O)c1nn(-c2ccc(OC(F)(F)F)cc2)c2cccc(S(=O)(=O)C3CC3)c2c1=O` [Compound P34, ethyl 5-cyclopropylsulfonyl-4-oxo-1-[4-(trifluoromethoxy)phenyl]cinnoline-3-carboxylate], the “percentage damage caused to the plant, five-point scale, AMARE” value in assay [1] is 0 (0=0%). For the same molecule, the “percentage damage caused to the plant, five-point scale, SETFA” value in assay [2] is given as 0 (0=0%). Also, the “percentage damage caused to the plant, five-point scale, ECHCG” value in [3] was 0 (0=0%). Besides, the “percentage damage caused to the plant, five-point scale, IPOHE” value in assay [4] is reported as 0 (0=0%). The “percentage damage caused to the plant, five-point scale, ABUTH” value in assay [5] is 0 (0=0%). In assay [6], the “percentage damage caused to the plant, five-point scale, ZEAMX” value is given as 0 (0=0%). Besides, in [7], the “percentage damage caused to the plant, ABUTH (five-point scale)” value is recorded as 0 (0=0%). The “percentage damage caused to the plant, AMARE (five-point scale)” value in assay [8] is listed as 0 (0=0%). The “percentage damage caused to the plant, ECHCG (five-point scale)” value in [9] is recorded as 0 (0=0%). Moreover, in assay [10], the “percentage damage caused to the plant, IPOHE (five-point scale)” value is reported as 0 (0=0%). The “percentage damage caused to the plant, SETFA (five-point scale)” value in [11] is reported as 0 (0=0%). The “percentage damage caused to the plant, ZEAMX (five-point scale)” value in [12] is given as 0 (0=0%).

In the case of `CS(=O)(=O)c1cccc2c1c(=O)c(C(=O)OCCCCCCCCCc1ccccc1)nn2-c1ccc(OC(F)(F)F)cc1` [Compound P83, 9-phenylnonyl 5-methylsulfonyl-4-oxo-1-[4-(trifluoromethoxy)phenyl]cinnoline-3-carboxylate], the “percentage damage caused to the plant, five-point scale, AMARE” value in [1] is on record as 0 (0=0%). Also, the “percentage damage caused to the plant, five-point scale, SETFA” value in assay [2] is on record as 0 (0=0%). Further, in assay [3], the “percentage damage caused to the plant, five-point scale, ECHCG” value is listed as 0 (0=0%). For the same molecule, the “percentage damage caused to the plant, five-point scale, IPOHE” value in assay [4] is on record as 0 (0=0%). The “percentage damage caused to the plant, five-point scale, ABUTH” value in [5] is listed as 0 (0=0%). In addition, the “percentage damage caused to the plant, five-point scale, ZEAMX” value in assay [6] was 0 (0=0%). Moreover, the “percentage damage caused to the plant, ABUTH (five-point scale)” value in [7] was 0 (0=0%). For the same molecule, in assay [8], the “percentage damage caused to the plant, AMARE (five-point scale)” value is recorded as 0 (0=0%). Moreover, the “percentage damage caused to the plant, ECHCG (five-point scale)” value in assay [9] is 0 (0=0%). Further, the “percentage damage caused to the plant, IPOHE (five-point scale)” value in assay [10] was 0 (0=0%). For the same molecule, the “percentage damage caused to the plant, SETFA (five-point scale)” value in [11] is recorded as 0 (0=0%). Besides, the “percentage damage caused to the plant, ZEAMX (five-point scale)” value in [12] is listed as 0 (0=0%).

Consider `CCOC(=O)c1nn(-c2ccc(OC(F)(F)F)cc2)c2ccc(Br)c(SC)c2c1=O` [Compound P53, ethyl 6-bromo-5-methylsulfanyl-4-oxo-1-[4-(trifluoromethoxy)phenyl]cinnoline-3-carboxylate], for which the “percentage damage caused to the plant, five-point scale, AMARE” value in [1] is listed as 1 (1=10-20%). For the same molecule, in [2], the “percentage damage caused to the plant, five-point scale, SETFA” value was 1 (1=10-20%). In assay [3], the “percentage damage caused to the plant, five-point scale, ECHCG” value is 1 (1=10-20%). Moreover, the “percentage damage caused to the plant, five-point scale, IPOHE” value in assay [4] is recorded as 0 (0=0%). In addition, the “percentage damage caused to the plant, five-point scale, ABUTH” value in assay [5] is given as 1 (1=10-20%). For the same molecule, in [7], the “percentage damage caused to the plant, ABUTH (five-point scale)” value is given as 1 (1=10-20%). Further, in assay [8], the “percentage damage caused to the plant, AMARE (five-point scale)” value is recorded as 0 (0=0%). In addition, the “percentage damage caused to the plant, ECHCG (five-point scale)” value in assay [9] is 1 (1=10-20%). Further, the “percentage damage caused to the plant, IPOHE (five-point scale)” value in [10] is given as 1 (1=10-20%). In addition, the “percentage damage caused to the plant, SETFA (five-point scale)” value in assay [11] is 0 (0=0%). For the same molecule, the “percentage damage caused to the plant, ZEAMX (five-point scale)” value in [12] is reported as 0 (0=0%).

For `CC[S+]([O-])c1cccc2c1c(=O)c(C(=O)O)nn2-c1ccc(OC(F)(F)F)cc1` (centres unmarked) [Compound P25, 5-ethylsulfinyl-4-oxo-1-[4-(trifluoromethoxy)phenyl]cinnoline-3-carboxylic acid], in assay [1], the “percentage damage caused to the plant, five-point scale, AMARE” value is 0 (0=0%). Also, in assay [2], the “percentage damage caused to the plant, five-point scale, SETFA” value is reported as 1 (1=10-20%). Besides, the “percentage damage caused to the plant, five-point scale, ECHCG” value in assay [3] is reported as 0 (0=0%). Also, the “percentage damage caused to the plant, five-point scale, IPOHE” value in assay [4] is 0 (0=0%). In [5], the “percentage damage caused to the plant, five-point scale, ABUTH” value was 0 (0=0%). The “percentage damage caused to the plant, five-point scale, ZEAMX” value in [6] is listed as 0 (0=0%). For the same molecule, the “percentage damage caused to the plant, ABUTH (five-point scale)” value in [7] was 1 (1=10-20%). The “percentage damage caused to the plant, AMARE (five-point scale)” value in assay [8] is 0 (0=0%). The “percentage damage caused to the plant, ECHCG (five-point scale)” value in [9] is 1 (1=10-20%). Besides, the “percentage damage caused to the plant, IPOHE (five-point scale)” value in [10] is given as 1 (1=10-20%). The “percentage damage caused to the plant, SETFA (five-point scale)” value in assay [11] is given as 2 (2=21-40%). In addition, in assay [12], the “percentage damage caused to the plant, ZEAMX (five-point scale)” value is 1 (1=10-20%).

For the molecule `CCOC(=O)c1nn(-c2ccc(OC(F)(F)F)cc2)c2cccc(SCC)c2c1=O` [Compound P23, ethyl 5-ethylsulfanyl-4-oxo-1-[4-(trifluoromethoxy)phenyl]cinnoline-3-carboxylate], the “percentage damage caused to the plant, five-point scale, AMARE” value in [1] is 0 (0=0%). Moreover, the “percentage damage caused to the plant, five-point scale, SETFA” value in assay [2] is reported as 0 (0=0%). For the same molecule, the “percentage damage caused to the plant, five-point scale, ECHCG” value in assay [3] is listed as 0 (0=0%). Moreover, in assay [4], the “percentage damage caused to the plant, five-point scale, IPOHE” value was 0 (0=0%). In addition, in assay [5], the “percentage damage caused to the plant, five-point scale, ABUTH” value is 0 (0=0%). In addition, the “percentage damage caused to the plant, five-point scale, ZEAMX” value in [6] was 1 (1=10-20%). Besides, the “percentage damage caused to the plant, ABUTH (five-point scale)” value in [7] is reported as 1 (1=10-20%). Also, in assay [8], the “percentage damage caused to the plant, AMARE (five-point scale)” value is listed as 0 (0=0%). Moreover, the “percentage damage caused to the plant, ECHCG (five-point scale)” value in assay [9] is listed as 1 (1=10-20%). In assay [10], the “percentage damage caused to the plant, IPOHE (five-point scale)” value was 1 (1=10-20%). The “percentage damage caused to the plant, SETFA (five-point scale)” value in [11] is given as 1 (1=10-20%). Moreover, the “percentage damage caused to the plant, ZEAMX (five-point scale)” value in assay [12] is 1 (1=10-20%).

Regarding `C#CCOC(=O)c1nn(-c2ccc(OC(F)(F)F)cc2)c2cccc(S(C)(=O)=O)c2c1=O` [Compound P79, prop-2-ynyl 5-methylsulfonyl-4-oxo-1-[4-(trifluoromethoxy)phenyl]cinnoline-3-carboxylate], in assay [1], the “percentage damage caused to the plant, five-point scale, AMARE” value was 0 (0=0%). In [2], the “percentage damage caused to the plant, five-point scale, SETFA” value is 5 (5=81-100%). The “percentage damage caused to the plant, five-point scale, ECHCG” value in [3] is 5 (5=81-100%). Also, the “percentage damage caused to the plant, five-point scale, IPOHE” value in assay [4] is 1 (1=10-20%). In addition, the “percentage damage caused to the plant, five-point scale, ABUTH” value in assay [5] is recorded as 0 (0=0%). Moreover, the “percentage damage caused to the plant, five-point scale, ZEAMX” value in [6] is recorded as 1 (1=10-20%). Also, the “percentage damage caused to the plant, ABUTH (five-point scale)” value in assay [7] is given as 1 (1=10-20%). Besides, in assay [8], the “percentage damage caused to the plant, AMARE (five-point scale)” value is reported as 0 (0=0%). Also, the “percentage damage caused to the plant, ECHCG (five-point scale)” value in [9] is 4 (4=61-80%). Besides, in assay [10], the “percentage damage caused to the plant, IPOHE (five-point scale)” value was 1 (1=10-20%). The “percentage damage caused to the plant, SETFA (five-point scale)” value in [11] is recorded as 4 (4=61-80%). For the same molecule, the “percentage damage caused to the plant, ZEAMX (five-point scale)” value in assay [12] is on record as 1 (1=10-20%).
